Assay results: patent US20240390251A1, “SKIN CARE COMPOSITION AND USE THEREOF, AND SKIN CARE COMPOSITION RAW MATERIAL” (YAMASA CORPORATION, priority 2021, published 2024)

Key:
[1] = test system: inflammatory cytokine production; assay: Anti-inflammatory evaluation of purine nucleotides in a similar experimental system; assay type: cell-based, human; details: similar experimental system to Example 1
Description: (§1) Normal human keratinocytes (NHEK; manufactured by Kurabo Industries, Ltd.) were seeded in a 96-well plate at a density of 2.5×10^4 cells/well and cultured at 37° C. for 24 hours. The medium was replaced with 100 μL of sample-containing medium (HuMedia-KG2; manufactured by Kurabo Industries, Ltd.) and cultured for 24 hours. After removing the sample-containing medium, the plate was washed with 100 μL of Hanks balanced salt solution (HBSS (−)) and irradiated with 20 mJ/cm^2 using a UVB lamp (TL20W/12RS; manufactured by PHILIPS). After washing with HBSS (−), the medium was replaced with 100 μL of fresh medium and cultured for 24 hours. After culturing, the culture supernatant was collected. The sample solutions used were 0.8 (mg/mL) of UMP,2Na 0.4, 0.8 (mg/mL) of CMP,2Na 0.4, 0.8 (mg/mL) of U:C=1:1 (mass ratio 1:1 mixture of UMP,2Na and CMP,2Na) 0.4, 0.8 (mg/mL) of U:C=4:1 (mass ratio 4:1 mixture of UMP,2Na and CMP,2Na) 0.4, and 0.8 (mg/mL) of U:C=1:4 (mass ratio 1:4 mixture of UMP,2Na and CMP,2Na) 0.4.
The culture supernatant of human keratinocytes was collected, and amounts of IL-1α, IL-6, and IL-8 were quantified by ELISA.

[2] = test system: IL-1α; assay: Anti-inflammatory evaluation using UVB-irradiated normal human keratinocytes, IL-1α by ELISA; assay type: cell-based; details: NHEK, UVB 20 mJ/cm^2, sample 0.4 and 0.8 mg/mL, FIG. 1; for amount of IL-1α produced: culture supernatant
Description: as §1, with “The effects of using various nucleotides on photoaging of the skin were evaluated using normal human keratinocytes. The effects of various nucleotides on inflammatory cytokines induced by UV irradiation of normal human keratinocytes were evaluated. Known inflammatory cytokines IL-1α, IL-6, and IL-8 were used as the inflammatory cytokines to be evaluated. Normal” for “Normal”, “(-))” for “(−))”, “(T[…]/12RS;” for “(TL20W/12RS;”, “(-),” for “(−),”, “0.4. The culture supernatant of human keratinocytes was collected, and amounts of IL-1α, IL-6, and IL-8 were quantified by ELISA.” for “0.4.”

[3] = test system: IL-6; assay: Anti-inflammatory evaluation using UVB-irradiated normal human keratinocytes, IL-6 by ELISA; assay type: cell-based; details: NHEK, FIG. 2; for concentration dependence of the inhibitory effect on IL-6 / amount of IL-6 produced: UVB 20 mJ/cm^2, sample 0.4 and 0.8 mg/mL; for amount of IL-6 produced: culture supernatant
Description: as §1, with “The effects of using various nucleotides on photoaging of the skin were evaluated using normal human keratinocytes. The effects of various nucleotides on inflammatory cytokines induced by UV irradiation of normal human keratinocytes were evaluated. Known inflammatory cytokines IL-1α, IL-6, and IL-8 were used as the inflammatory cytokines to be evaluated. Normal” for “Normal”, “(-))” for “(−))”, “(T[…]/12RS;” for “(TL20W/12RS;”, “(-),” for “(−),”, “0.4. The culture supernatant of human keratinocytes was collected, and amounts of IL-1α, IL-6, and IL-8 were quantified by ELISA.” for “0.4.”

[4] = test system: IL-8; assay: Anti-inflammatory evaluation using UVB-irradiated normal human keratinocytes, IL-8 by ELISA; assay type: cell-based; details: NHEK, FIG. 3; for concentration dependence of the inhibitory effect on IL-8 / amount of IL-8 produced: UVB 20 mJ/cm^2, sample 0.4 and 0.8 mg/mL; for amount of IL-8 produced: culture supernatant
Description: as §1, with “The effects of using various nucleotides on photoaging of the skin were evaluated using normal human keratinocytes. The effects of various nucleotides on inflammatory cytokines induced by UV irradiation of normal human keratinocytes were evaluated. Known inflammatory cytokines IL-1α, IL-6, and IL-8 were used as the inflammatory cytokines to be evaluated. Normal” for “Normal”, “(-))” for “(−))”, “(T[…]/12RS;” for “(TL20W/12RS;”, “(-),” for “(−),”, “0.4. The culture supernatant of human keratinocytes was collected, and amounts of IL-1α, IL-6, and IL-8 were quantified by ELISA.” for “0.4.”

[5] = test system: IL-8; assay: Anti-inflammatory evaluation using UVB-irradiated three-dimensional cultured human epidermis, IL-8 by ELISA; assay type: cell-based; details: UVB 600 mJ/cm^2, tested 0.125-1.0 w/v %, FIG. 6
Description: (§2) To reproduce the phenomenon that occurs in actual epidermis, three-dimensional cultured human epidermis was used to evaluate the suppression effect of cytidylic acid on inflammatory cytokines induced by UV irradiation. In addition, to verify the relationship between the amount of cytidylic acid and the suppression effect on inflammatory cytokine production, the effects of varying the amount of cytidylic acid were evaluated.
(§3) Three-dimensional cultured human epidermis (LabCyte EPI MODEL 24; manufactured by J TEC) was set in a 24-well plate to which 500 μL of the attached assay medium was added, and acclimated overnight at 37° C. 50 μL of sample-containing PBS (−) was applied from the stratum corneum side and cultured for 24 hours. After removing the sample-containing PBS (−), the plate was washed with PBS (−) and irradiated with 600 mJ/cm^2 using a UVB lamp (TL20W/12RS; manufactured by PHILIPS). The medium was replaced with a fresh medium, 50 μL of sample-containing PBS (−) was newly applied from the stratum corneum side, and further cultured for 48 hours. After culturing, the culture supernatant was collected. The concentrations of cytidylic acid in the respective samples were 0, 0.125, 0.25, 0.5, and 1.0 (w/v %), respectively. Each inflammatory cytokine contained in the supernatant was quantified by ELISA.

[6] = test system: IL-1α; assay: Anti-inflammatory evaluation using UVB-irradiated three-dimensional cultured human epidermis, IL-1α by ELISA; assay type: cell-based; details: UVB 600 mJ/cm^2, tested 0.125-1.0 w/v %, FIG. 4
Description: as §2, §3

[7] = test system: IL-6; assay: Anti-inflammatory evaluation using UVB-irradiated three-dimensional cultured human epidermis, IL-6 by ELISA; assay type: cell-based; details: UVB 600 mJ/cm^2, tested 0.125-1.0 w/v %, FIG. 5
Description: as §2, §3

[8] = UVB 20 mJ/cm^2, significant difference between uridylic acid and cytidylic acid

SMILES	effect of inhibiting inflammatory cytokine production, compared with cytidylic acid and uridylic acid [1]	concentration dependence of the inhibitory effect on IL-1α [2]	amount of IL-1α produced [2]	concentration dependence of the inhibitory effect on IL-6 [3]	amount of IL-6 produced [3]	effect of inhibiting IL-6 production, compared with uridylic acid [3, 8]	concentration dependence of the inhibitory effect on IL-8 [4]	amount of IL-8 produced [4]	effect of inhibiting IL-8 production, compared with uridylic acid [4, 8]	concentration at which a significant IL-8 production inhibitory effect was observed [5] [%]	concentration at which a significant IL-1α production inhibitory effect was observed [6] [%]	concentration at which a significant IL-6 production inhibitory effect was observed [7] [%]
Nc1nc2c(ncn2[C@@H]2O[C@H](COP(=O)(O)O)[C@@H](O)[C@H]2O)c(=O)[nH]1 [guanylic acid]	only a lower effect of inhibiting inflammatory cytokine production than cytidylic acid and uridylic acid											
Nc1ncnc2c1ncn2[C@@H]1O[C@H](COP(=O)(O)O)[C@@H](O)[C@H]1O [adenylic acid]	only a lower effect of inhibiting inflammatory cytokine production than cytidylic acid and uridylic acid											
Nc1ccn([C@@H]2O[C@H](COP(=O)(O)O)[C@@H](O)[C@H]2O)c(=O)n1 [cytidylic acid]		increased the inhibitory effect in a concentration-dependent manner	suppressed the amount of IL-1α produced	increased the inhibitory effect in a concentration-dependent manner	suppressed the amount of IL-6 produced	particularly remarkable effect of inhibiting IL-6 production	increased the inhibitory effect in a concentration-dependent manner	suppressed the amount of IL-8 produced	particularly remarkable effect of inhibiting IL-8 production	≥ 0.125	≥ 0.25	≥ 0.125
O=c1ccn([C@@H]2O[C@H](COP(=O)(O)O)[C@@H](O)[C@H]2O)c(=O)[nH]1 [uridylic acid]		increased the inhibitory effect in a concentration-dependent manner	suppressed the amount of IL-1α produced	increased the inhibitory effect in a concentration-dependent manner	suppressed the amount of IL-6 produced		increased the inhibitory effect in a concentration-dependent manner	suppressed the amount of IL-8 produced				
